From ChEMBL document CHEMBL1201862, “PubChem BioAssay data set” (2004)
Calls of active or inactive are those of the source.

Assays:
[1] = molecular target: C-C chemokine receptor type 6 (Homo sapiens, UniProt P51684); assay: CCR6 receptor antagonists, dose response, cell-based, luminescent beta-arrestin readout (AID 504728); format: functional
[2] = molecular target: Beta-galactosidase (Escherichia coli, UniProt Q8VNN2); assay: beta-galactosidase enzyme inhibitors and activators, dose response, artefact control for CCR6 antagonist project, biochemical, E. coli enzyme, set 3 (AID 504712); format: functional
Chain of Beta-galactosidase (Q8VNN2 whole entry): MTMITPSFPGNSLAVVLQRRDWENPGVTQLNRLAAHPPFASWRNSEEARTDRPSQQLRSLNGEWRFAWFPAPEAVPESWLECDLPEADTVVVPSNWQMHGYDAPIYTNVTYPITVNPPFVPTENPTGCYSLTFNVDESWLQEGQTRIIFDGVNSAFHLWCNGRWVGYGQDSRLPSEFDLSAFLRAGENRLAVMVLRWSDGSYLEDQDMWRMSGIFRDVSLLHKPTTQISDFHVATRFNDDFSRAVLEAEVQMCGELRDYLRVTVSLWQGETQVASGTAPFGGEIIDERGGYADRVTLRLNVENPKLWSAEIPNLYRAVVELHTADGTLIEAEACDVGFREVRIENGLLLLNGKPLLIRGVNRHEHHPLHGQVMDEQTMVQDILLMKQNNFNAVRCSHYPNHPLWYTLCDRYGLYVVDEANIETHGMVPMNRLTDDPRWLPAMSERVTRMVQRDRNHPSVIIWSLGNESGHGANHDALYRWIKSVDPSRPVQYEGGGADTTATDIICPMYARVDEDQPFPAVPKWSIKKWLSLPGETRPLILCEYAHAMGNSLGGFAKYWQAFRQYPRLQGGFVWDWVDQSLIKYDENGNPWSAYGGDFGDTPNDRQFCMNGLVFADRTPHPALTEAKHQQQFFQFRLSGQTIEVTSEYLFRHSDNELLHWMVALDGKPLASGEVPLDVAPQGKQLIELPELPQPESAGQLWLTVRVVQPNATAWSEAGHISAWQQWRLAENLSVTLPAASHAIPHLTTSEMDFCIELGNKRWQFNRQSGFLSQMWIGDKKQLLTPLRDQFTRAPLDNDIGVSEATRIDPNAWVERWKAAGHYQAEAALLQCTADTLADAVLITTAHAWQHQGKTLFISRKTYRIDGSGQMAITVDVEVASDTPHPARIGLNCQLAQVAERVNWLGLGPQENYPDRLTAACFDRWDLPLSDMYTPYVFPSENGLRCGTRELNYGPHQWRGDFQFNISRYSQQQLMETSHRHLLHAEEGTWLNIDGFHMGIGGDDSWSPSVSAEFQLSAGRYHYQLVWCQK

[3] = Luminescence-based cell-based high throughput dose response assay to identify activators of the DAF-12 from the parasite S. stercoralis (ssDAF-12).; format: functional
[4] = molecular target: T1, Oxysterols receptor LXR-beta (Homo sapiens, UniProt P55055); assay: LXR agonists, Gal4 luciferase reporter, dose response, counter-screen for ssDAF-12 agonist project, cell-based, luminescence, HEK293, S. stercoralis campaign (AID 720737); format: functional; conditions: read-out: IC50 (the source's name)
T1 sequence (P55055 whole entry): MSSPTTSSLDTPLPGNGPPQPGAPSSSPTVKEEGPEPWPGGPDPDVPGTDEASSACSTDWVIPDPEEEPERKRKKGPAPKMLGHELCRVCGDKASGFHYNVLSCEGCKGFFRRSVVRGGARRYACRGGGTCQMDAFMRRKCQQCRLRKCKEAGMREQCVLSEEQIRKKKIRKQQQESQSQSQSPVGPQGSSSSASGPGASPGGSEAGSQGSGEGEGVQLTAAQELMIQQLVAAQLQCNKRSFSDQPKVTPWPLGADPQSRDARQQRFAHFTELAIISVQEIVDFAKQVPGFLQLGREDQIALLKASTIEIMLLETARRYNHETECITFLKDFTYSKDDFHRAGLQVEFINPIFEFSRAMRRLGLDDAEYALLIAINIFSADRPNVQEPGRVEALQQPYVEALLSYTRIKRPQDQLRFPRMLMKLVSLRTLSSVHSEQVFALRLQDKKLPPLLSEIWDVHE

[5] = molecular target: Eukaryotic translation initiation factor 4E (Mus musculus, UniProt P63073); assay: eIF4E–eIF4G protein interaction inhibitors, dose response, biochemical, TR-FRET (AID 855); format: functional;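 further: potency for disrupting eIF4E binding to eIF4GI seen as loss of FRET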
Chain of Eukaryotic translation initiation factor 4E (P63073 whole entry, the tested form may be a part): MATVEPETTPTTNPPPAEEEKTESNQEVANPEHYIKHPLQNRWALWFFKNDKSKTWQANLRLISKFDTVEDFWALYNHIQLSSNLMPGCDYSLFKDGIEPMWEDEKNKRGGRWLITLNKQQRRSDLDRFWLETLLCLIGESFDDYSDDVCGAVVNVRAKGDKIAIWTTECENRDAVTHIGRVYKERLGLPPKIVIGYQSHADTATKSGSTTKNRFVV

[6] = molecular target: T2, Carboxy-terminal domain RNA polymerase II polypeptide A small phosphatase 1 (Homo sapiens, UniProt Q9GZU7); assay: inhibitors of CTDSP1, concentration-response testing, biochemical assay, absorbance-based, actives from ultra-high-throughput screening (AID 540297); format: functional
T2 sequence (Q9GZU7 whole entry): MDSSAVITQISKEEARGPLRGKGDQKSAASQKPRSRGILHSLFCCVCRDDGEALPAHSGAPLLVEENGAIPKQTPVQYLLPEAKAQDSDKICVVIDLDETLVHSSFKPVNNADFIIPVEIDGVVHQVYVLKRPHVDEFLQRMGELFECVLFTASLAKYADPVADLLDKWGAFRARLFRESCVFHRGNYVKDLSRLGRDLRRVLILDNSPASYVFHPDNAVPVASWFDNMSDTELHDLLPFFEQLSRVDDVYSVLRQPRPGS

[7] = molecular target: Serine/threonine-protein phosphatase PP1-alpha catalytic subunit (Homo sapiens, UniProt P62136); assay: PP1 phosphatase inhibitors, dose response, biochemical, fluorescence (AID 2403);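 further: phosphatase turnover of OMFP into fluorescent 3-O-methylfluorescein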
[8] = molecular target: Serine/threonine-protein phosphatase (Homo sapiens, UniProt Q9BPW0); assay: Counterscreen for inhibitors of PP1: fluorescence-based biochemical high throughput dose response assay to identify inhibitors of Protein Phosphatase 5 (PP5). [Related pubchem assays: 2034 (Summary (PP5 inhibitors)), 1987 (PP5 inhibitors in singlate), 2235 (PP1 inhibitors in singlate)]
[9] = A Cell Based Secondary Assay To Explore Cytotoxicity of Compounds that Sensitize Mycobacterium Tuberculosis to Beta-Lactam Antibiotics.; format: functional
[10] = molecular target: Leucine aminopeptidase (Plasmodium falciparum 3D7, UniProt Q8IL11); assay: P. falciparum M17LAP inhibitors, primary screen, biochemical, fluorogenic H-Leu-NHMec substrate, 1536-well (AID 1619); format: functional
Chain of Leucine aminopeptidase (Q8IL11 whole entry): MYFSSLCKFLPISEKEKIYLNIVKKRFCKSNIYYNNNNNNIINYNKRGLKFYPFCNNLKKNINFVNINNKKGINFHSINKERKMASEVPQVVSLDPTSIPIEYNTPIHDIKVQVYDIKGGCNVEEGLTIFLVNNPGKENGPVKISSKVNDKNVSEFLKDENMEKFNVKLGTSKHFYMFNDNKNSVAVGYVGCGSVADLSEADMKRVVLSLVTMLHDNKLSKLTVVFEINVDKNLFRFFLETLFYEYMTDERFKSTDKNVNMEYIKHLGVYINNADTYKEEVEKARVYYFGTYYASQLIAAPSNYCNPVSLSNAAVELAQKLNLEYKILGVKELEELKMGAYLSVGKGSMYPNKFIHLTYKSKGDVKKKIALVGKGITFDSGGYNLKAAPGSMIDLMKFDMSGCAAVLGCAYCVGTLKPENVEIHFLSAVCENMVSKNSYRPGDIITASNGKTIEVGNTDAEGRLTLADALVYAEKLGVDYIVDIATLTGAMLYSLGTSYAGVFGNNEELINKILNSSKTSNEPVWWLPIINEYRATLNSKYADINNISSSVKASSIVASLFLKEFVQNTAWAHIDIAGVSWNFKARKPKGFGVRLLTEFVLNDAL

[11] = HEp-2 cell cytotoxicity, dose response, cytotoxicity control for RSV inhibitor project, HTS (AID 2410); format: functional; conditions: human respiratory syncytial virus
[12] = cells
[13] = molecular target: Estrogen receptor (Homo sapiens, UniProt P03372); assay: potentiators of ERα–SRC-1 coactivator binding, dose response, biochemical, TR-FRET, ERα LBD (AID 737)
Chain of Estrogen receptor (P03372 whole entry, the tested form may be a part): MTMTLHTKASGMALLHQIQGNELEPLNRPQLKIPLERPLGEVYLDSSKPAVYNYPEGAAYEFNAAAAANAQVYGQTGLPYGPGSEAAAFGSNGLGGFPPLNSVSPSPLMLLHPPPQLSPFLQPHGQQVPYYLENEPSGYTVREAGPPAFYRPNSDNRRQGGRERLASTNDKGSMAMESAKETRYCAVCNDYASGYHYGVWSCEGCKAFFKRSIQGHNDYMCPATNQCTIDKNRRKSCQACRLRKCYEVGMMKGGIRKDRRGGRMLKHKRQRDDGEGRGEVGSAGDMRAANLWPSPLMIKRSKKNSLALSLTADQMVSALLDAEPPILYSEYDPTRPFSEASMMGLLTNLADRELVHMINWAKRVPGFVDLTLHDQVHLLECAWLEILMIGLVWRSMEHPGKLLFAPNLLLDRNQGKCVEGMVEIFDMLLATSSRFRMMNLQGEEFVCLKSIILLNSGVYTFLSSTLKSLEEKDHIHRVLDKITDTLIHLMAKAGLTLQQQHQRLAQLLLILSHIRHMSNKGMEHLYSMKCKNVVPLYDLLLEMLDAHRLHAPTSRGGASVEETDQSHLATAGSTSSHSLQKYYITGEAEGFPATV

[14] = molecular target: T3, Alkaline phosphatase, tissue-nonspecific isozyme (Homo sapiens, UniProt P05186)
T3 sequence (P05186 whole entry): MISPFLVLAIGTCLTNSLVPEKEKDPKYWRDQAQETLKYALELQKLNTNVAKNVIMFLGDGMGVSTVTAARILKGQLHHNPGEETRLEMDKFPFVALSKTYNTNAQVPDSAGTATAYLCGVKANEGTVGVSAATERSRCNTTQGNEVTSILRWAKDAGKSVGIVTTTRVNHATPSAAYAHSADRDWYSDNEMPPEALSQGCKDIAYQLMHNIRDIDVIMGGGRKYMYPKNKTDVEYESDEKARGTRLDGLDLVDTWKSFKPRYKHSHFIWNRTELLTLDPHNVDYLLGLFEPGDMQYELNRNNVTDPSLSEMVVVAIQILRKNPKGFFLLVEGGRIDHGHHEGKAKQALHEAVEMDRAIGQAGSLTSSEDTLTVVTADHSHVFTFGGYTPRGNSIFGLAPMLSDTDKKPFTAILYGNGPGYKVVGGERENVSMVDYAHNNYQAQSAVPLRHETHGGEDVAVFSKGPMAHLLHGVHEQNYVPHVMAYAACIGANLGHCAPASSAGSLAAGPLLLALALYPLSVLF

[15] = THP-1 cell cytotoxicity, dose response, cytotoxicity control for Vif-APOBEC3G degradation inhibitor project, THP-1 cells (AID 1117359); format: functional; conditions: Human immunodeficiency virus 1, THP-1
[16] = molecular target: G-protein coupled receptor 55 (Homo sapiens, UniProt Q9Y2T6); assay: GPR55 antagonists blocking LPI-driven arrestin recruitment, primary screen, imaging, U2OS, beta-arrestin-GFP, LPI agonist (AID 2013); format: functional;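 further: antagonist potency measured as reduced agonist-driven arrestin aggregation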
Chain of G-protein coupled receptor 55 (Q9Y2T6 whole entry): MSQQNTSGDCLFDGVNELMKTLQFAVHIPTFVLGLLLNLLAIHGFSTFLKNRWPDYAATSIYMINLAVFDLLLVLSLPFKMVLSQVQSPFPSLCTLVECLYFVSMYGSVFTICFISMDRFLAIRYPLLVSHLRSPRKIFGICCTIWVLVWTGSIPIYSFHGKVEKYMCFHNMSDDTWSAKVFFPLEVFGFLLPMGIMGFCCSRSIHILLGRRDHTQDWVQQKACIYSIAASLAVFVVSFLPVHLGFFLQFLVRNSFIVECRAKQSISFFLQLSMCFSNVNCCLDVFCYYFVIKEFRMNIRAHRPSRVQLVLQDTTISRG

[17] = molecular target: T4, Caspase-3 (Homo sapiens, UniProt P42574); assay: procaspase-3 activators, dose response, biochemical, absorbance (AID 489014)
T4 sequence (P42574 whole entry): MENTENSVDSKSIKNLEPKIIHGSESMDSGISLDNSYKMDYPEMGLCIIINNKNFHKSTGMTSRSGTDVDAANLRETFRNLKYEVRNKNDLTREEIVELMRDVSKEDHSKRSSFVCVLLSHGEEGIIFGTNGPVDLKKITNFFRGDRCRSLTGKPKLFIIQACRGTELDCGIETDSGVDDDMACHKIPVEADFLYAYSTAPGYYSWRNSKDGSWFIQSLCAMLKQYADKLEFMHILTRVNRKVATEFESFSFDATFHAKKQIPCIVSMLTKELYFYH

[18] = molecular target: Caspase-7 (Homo sapiens, UniProt P55210); assay: procaspase-7 activators, dose response, counter-screen for procaspase-3 activator project, biochemical, absorbance (AID 489013)
Chain of Caspase-7 (P55210 24-198 limits assumed): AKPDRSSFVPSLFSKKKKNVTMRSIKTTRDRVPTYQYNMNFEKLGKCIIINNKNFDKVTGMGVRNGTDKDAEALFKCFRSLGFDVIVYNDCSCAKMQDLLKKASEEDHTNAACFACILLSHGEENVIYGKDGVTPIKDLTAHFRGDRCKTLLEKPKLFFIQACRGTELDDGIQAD
Chain of Caspase-7 (P55210 207-303 limits assumed): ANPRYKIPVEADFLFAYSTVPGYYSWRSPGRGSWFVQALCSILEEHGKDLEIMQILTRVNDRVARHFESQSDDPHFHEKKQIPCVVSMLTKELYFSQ

[19] = molecular target: X-box-binding protein 1 (Homo sapiens, UniProt P17861); format: functional, Cricetulus griseus;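 further: confirmatory dose-response counter-screen serving a CHOP assay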
Chain of X-box-binding protein 1 (P17861 whole entry): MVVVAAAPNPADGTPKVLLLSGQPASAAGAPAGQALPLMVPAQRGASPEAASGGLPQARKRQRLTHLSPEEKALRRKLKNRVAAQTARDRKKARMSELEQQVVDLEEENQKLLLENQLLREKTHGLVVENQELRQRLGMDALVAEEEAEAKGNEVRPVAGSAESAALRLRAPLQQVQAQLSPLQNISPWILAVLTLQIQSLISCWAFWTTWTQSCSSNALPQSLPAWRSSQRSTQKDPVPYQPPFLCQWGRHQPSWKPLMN

[20] = molecular target: DNA dC->dU-editing enzyme APOBEC-3G (Homo sapiens, UniProt Q9HC16); assay: Dose Response confirmation of small molecule APOBEC3G DNA Deaminase Inhibitors via a fluorescence-based single-stranded DNA deaminase assay. [Related pubchem assays (depositor defined):AID493012, AID493028]; format: functional
[21] = molecular target: Cytochrome P450 2D6 (Homo sapiens, UniProt P10635); assay: qHTS Assay for Inhibitors and Substrates of Cytochrome P450 2D6. [Related pubchem assays: 410 ]; format: ADME; conditions: read-out: Potency
Chain of Cytochrome P450 2D6 (P10635 whole entry): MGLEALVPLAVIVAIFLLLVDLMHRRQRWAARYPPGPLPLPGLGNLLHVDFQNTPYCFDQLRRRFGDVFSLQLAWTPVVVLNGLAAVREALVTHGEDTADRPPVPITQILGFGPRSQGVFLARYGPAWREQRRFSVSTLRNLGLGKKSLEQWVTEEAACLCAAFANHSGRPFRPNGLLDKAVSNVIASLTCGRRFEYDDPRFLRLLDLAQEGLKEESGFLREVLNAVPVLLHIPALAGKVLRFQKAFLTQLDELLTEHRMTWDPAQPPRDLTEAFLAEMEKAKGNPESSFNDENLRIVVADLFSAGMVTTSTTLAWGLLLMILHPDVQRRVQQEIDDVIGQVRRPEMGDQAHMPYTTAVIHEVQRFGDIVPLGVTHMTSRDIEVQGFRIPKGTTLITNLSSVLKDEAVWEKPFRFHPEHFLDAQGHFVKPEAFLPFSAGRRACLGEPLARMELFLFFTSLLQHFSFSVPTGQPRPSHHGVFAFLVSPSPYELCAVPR

[22] = tested on: Streptococcus sp. 'group A'; assay: growth inhibition of control SK(-) GAS strain, dose response, counter-screen for streptokinase expression inhibitor project, luminescence, kanamycin, BacTiterGlo, confirmation (AID 1900); format: functional, organism-based
[23] = molecular target: T5, Streptokinase A (Streptococcus pyogenes serotype M1, UniProt P10520); assay: S. pyogenes streptokinase expression inhibitors, potency, dose response, plasminogen activation absorbance, OD405 (AID 1914); format: functional, Streptococcus pyogenes M1 GAS;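 further: secreted streptokinase activity via plasminogen activation per viability signal from cell pellet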
T5 sequence (P10520 whole entry): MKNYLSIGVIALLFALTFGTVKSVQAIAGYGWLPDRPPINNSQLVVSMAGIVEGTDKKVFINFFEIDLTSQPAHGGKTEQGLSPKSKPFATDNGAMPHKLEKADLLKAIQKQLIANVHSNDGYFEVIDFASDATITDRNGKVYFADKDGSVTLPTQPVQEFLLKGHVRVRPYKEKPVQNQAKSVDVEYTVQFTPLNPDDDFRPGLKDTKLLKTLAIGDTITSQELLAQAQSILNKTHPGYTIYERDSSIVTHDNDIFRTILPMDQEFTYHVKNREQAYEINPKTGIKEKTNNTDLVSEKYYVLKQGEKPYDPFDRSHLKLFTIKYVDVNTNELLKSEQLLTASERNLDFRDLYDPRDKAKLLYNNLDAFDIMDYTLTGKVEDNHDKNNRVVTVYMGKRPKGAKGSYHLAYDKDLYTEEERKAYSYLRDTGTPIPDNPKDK

[24] = tested on: Streptococcus; assay: Group A Streptococcus viability loss, dose response, counter-screen for streptokinase expression inhibitor project, luminescence, BacTiterGlo (AID 1915); format: functional, organism-based;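 further: potency for reduction of bacterial viability or growth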
[25] = molecular target: Melanin-concentrating hormone receptor 1 (Homo sapiens, UniProt Q99705); assay: Fluorescence-based counterscreen for antagonists of the G-protein coupled receptor 7 (GPR7): cell-based high throughput dose response assay to identify antagonists of the melanin-concentrating hormone receptor 1 (MCHR1).; format: functional
[26] = molecular target: Alkaline phosphatase, placental type (Homo sapiens, UniProt P05187); assay: PLAP enzyme inhibitors, confirmation, biochemical, luminescence (AID 1512); format: functional
[27] = molecular target: T3, Alkaline phosphatase, tissue-nonspecific isozyme; assay: human TNAP enzyme inhibitors, SAR follow-up, biochemical, luminescent, dose response (AID 1056)
[28] = molecular target: Cytochrome P450 3A4 (Homo sapiens, UniProt P08684); conditions: Potency;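 further: confirmatory qHTS run detecting inhibitors and substrates of CYP3A4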
Chain of Cytochrome P450 3A4 (P08684 whole entry): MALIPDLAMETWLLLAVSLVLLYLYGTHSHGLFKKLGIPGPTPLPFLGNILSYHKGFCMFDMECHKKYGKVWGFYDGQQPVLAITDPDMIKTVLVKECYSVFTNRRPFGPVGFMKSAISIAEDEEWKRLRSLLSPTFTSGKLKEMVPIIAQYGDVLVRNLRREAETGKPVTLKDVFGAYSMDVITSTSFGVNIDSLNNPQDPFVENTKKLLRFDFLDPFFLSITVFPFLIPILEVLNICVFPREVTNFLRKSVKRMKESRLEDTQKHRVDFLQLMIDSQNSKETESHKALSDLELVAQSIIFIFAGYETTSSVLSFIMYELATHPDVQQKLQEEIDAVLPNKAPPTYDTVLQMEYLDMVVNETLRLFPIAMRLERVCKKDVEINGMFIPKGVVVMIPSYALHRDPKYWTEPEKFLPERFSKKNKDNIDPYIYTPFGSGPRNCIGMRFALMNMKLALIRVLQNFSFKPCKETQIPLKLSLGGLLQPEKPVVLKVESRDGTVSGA

[29] = growth suppression of PTEN-null colon cells, dose response, cell-based, HCT116 PTEN knockout (AID 1047); format: functional;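 further: HCT116 colon tumor cells with PTEN knocked out; cells exposed to compound for 60 hours before readout; potency for loss of cell viability measured by luminescence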
[30] = growth suppression of beta-catenin-knockout colon cells, dose response, cell-based, HCT116, human colon tumor (AID 1045); format: functional;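 further: HCT116 colon tumor cells with beta catenin knocked out; cells exposed to compound for 60 hours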

Chain of C-C chemokine receptor type 6 (P51684 whole entry): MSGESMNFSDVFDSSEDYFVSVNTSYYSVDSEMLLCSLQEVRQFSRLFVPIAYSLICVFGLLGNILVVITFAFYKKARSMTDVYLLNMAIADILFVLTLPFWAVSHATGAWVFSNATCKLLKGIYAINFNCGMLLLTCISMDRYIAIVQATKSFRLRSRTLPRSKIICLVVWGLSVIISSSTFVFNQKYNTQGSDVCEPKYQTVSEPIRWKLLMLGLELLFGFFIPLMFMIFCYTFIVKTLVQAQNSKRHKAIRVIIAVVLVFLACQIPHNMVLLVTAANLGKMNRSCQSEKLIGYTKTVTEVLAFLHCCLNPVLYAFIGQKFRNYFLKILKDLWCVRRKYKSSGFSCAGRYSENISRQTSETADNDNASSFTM

Structure (SMILES): Cc1c(C(=O)Nc2nc3ccccc3[nH]2)oc2ccccc12
- IC50 [1]: 0.552 µM (active)
- IC50 [2]: > 66.6 µM (inactive)
- IC50 [3]: > 67.5 µM (inactive)
- EC50 [4]: > 67.5 µM (inactive)

Structure (SMILES): c1ccc2[nH]c(-c3ccnc4ccccc34)nc2c1
- IC50 [5]: > 64 µM (inactive)
- IC50 [6]: 3.66 µM (active)

Structure (SMILES): COc1ccc(CN2C(=O)Cc3c2nc(N)c2c(N)nc(N4CCCCC4)c(C#N)c32)cc1
- IC50 [7]: 11.1 µM (not active)
- IC50 [8]: > 67 µM (not active)

Structure (SMILES): Cc1cc(NC(=O)CSc2nc(C(C)C)nc3sc4c(c23)CCCC4)no1
- CC50 [9]: 38 µM (active)

Structure (SMILES): CCc1ccccc1NC(=O)CSc1nnc[nH]1
- IC50 [10]: 34.4 µM (active)

Structure (SMILES): Cc1nc2ccccc2nc(C)c1=NOCc1cccc(F)c1
- CC50 [11]: 41.4 µM (active)
- IC50 [12]: 35.9 µM (active)

Structure (SMILES): COc1cccc(-n2nnnc2SCC(=O)Nc2ccc(C(C)=O)cc2)c1
- EC50 [13]: 17.3 µM (active)

Structure (SMILES): CCC(C)N=C(S)NNC(=O)c1ccc(C(C)(C)C)cc1 (stereo not drawn)
- EC50 [14]: 79.2 µM (not active)
- CC50 [15]: > 40 µM (active)

Structure (SMILES): COc1cc(OC)c(-n2c(C)cc(C=O)c2C)cc1Cl
- IC50 [16]: 4.72 µM (active)

Structure (SMILES): CCCCOn1c(C)c(C(=O)OCC)c2c3nonc3ccc21
- EC50 [17]: > 85.3 µM (inactive)
- EC50 [18]: > 85.3 µM (inactive)

Structure (SMILES): CCCOc1ccc(N2C(=O)CC(SC(=NCC)Nc3cccc(F)c3)C2=O)cc1 (stereo not drawn)
- Absolute IC50 (XBP1) [19]: 10 µM

Structure (SMILES): N#Cc1ccsc1NC(=O)CSc1nnc[nH]1
- IC50 [10]: 10.7 µM (active)

Structure (SMILES): CCSc1nc2c(cnn2-c2ccc(C)cc2)c(=O)[nH]1
- EC50 [13]: 14.4 µM (active)

Structure (SMILES): Cc1ccc(C)c2sc(NC(=O)c3nc4ccccc4s3)nc12
- IC50 [1]: 0.869 µM (active)
- IC50 [2]: > 66.6 µM (inactive)

Structure (SMILES): CCN(CC)c1ccc(NC(=O)c2ccccc2)cc1S(=O)(=O)Nc1ccccc1OC
- IC50 [20]: 30 µM (active)

Structure (SMILES): Cc1nc2ccccc2nc1Nc1cccc(Cl)c1
- CC50 [11]: 24.1 µM (active)
- IC50 [12]: 11.7 µM (active)

Structure (SMILES): COc1ccc(NC(=O)/C=C\c2ccc(Cl)cc2)cc1
- AC50 [21]: 25.1 µM (inconclusive)

Structure (SMILES): Cc1ccc(NC(=O)c2ccc(C#CC3(O)CCCCC3)cc2)cc1C
- EC50 [22]: > 150 µM (not active)
- EC50 [23]: 7.36 µM (inconclusive)
- EC50 [24]: > 150 µM (not active)
- Absolute IC50 (XBP1) [19]: 10 µM

Structure (SMILES): C#CC(CO)N(CCN(Cc1ccccc1)C(C#C)CO)Cc1ccccc1 (stereo not drawn)
- IC50 [25]: 15 µM (not active)

Structure (SMILES): COc1ccc(CCNC(=O)CCNC(=O)c2ccc(Br)cc2)cc1OC
- IC50 [5]: > 64 µM (inactive)

Structure (SMILES): Cc1ccc(-c2nnc(SCC(=O)c3ccc(O)c(O)c3)n2-c2ccc(C)cc2)cc1
- IC50 [26]: 9.54 µM (active)
- IC50 [27]: > 100 µM (inactive)

Structure (SMILES): O=c1cc(-c2cccc(O)c2O)oc2ccccc12
- AC50 [21]: 31.6 µM (inconclusive)
- AC50 [28]: 20 µM (inconclusive)

Structure (SMILES): CCN(CC)c1ccc(/C=N/NC(=S)NCc2ccco2)cc1
- EC50 [17]: > 85.3 µM (inactive)
- EC50 [18]: > 85.3 µM (inactive)

Structure (SMILES): Cn1c(=O)c2c(nc(N/N=C/c3cccs3)n2Cc2ccccc2)n(C)c1=O
- EC50 [14]: > 100 µM (not active)
- EC50 [29]: 56.2 µM (active)
- EC50 [30]: 84.2 µM (active)

Structure (SMILES): O=C1N=C(N/N=C/c2ccc3ncccc3c2)SC1Cc1ccc(SC(F)F)cc1 (stereo not drawn)
- CC50 [9]: > 40 µM (active)
